Inhibition data for one molecule are collected here from paper PMC6934184, “Selective DNA-PKcs inhibition extends the therapeutic index of localized radiotherapy and chemotherapy” (The Journal of Clinical Investigation, 2019).

The target in this assay is T1, FYN (Homo sapiens, UniProt P06241).
T1 construct: purchased Thermo Fisher Scientific (Life Technologies) SelectScreen
As to the kind of experiment: SelectScreen Z'LYTE. Format: biochemical. The method, boiled down:
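Compound tested in SelectScreen activity assays, Z'LYTE for CSF1R, CDK1/cyclin B and MAP2K6 and Adapta for CAMK1. ATP for CAMK1 was listed as 10, and Km app was used for CSF1R. Results are expressed in percent.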

T1 sequence (P06241 whole entry): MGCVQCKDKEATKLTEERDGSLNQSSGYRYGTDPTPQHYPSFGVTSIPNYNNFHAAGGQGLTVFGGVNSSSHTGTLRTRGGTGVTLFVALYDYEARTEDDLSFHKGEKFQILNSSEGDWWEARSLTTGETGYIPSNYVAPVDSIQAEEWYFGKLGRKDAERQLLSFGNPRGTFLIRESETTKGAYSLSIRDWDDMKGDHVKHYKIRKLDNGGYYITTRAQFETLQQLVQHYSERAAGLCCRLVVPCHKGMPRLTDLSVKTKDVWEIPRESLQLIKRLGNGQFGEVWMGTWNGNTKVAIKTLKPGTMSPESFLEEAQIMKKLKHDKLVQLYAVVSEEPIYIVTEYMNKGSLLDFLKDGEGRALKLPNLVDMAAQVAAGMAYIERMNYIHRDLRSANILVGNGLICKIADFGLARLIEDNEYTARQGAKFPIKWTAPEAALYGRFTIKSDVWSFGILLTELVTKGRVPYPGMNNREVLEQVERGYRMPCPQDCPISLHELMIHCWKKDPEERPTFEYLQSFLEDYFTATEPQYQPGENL

In turn, `CN(C(=O)CN1CCOCC1)c1ccc2sc3c(-c4cccc5c(=O)cc(N6CC7CCC(C6)O7)oc45)cccc3c2c1` [NU5455] returned an inhibition at 1 µM of 8.3%.
